Measurements from PubChem BioAssay (NCI).
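Results reflect a 48-hour exposure of cells in 96-well plates to compound at five concentrations. At the TGI there is no net growth.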

What was measured:
Assay in all cases: DTP human tumour cell line panel, 48 h
[1] = test system: 786-0 renal
[2] = test system: A498 renal
[3] = test system: A549 NSCLC
[4] = test system: ACHN renal
[5] = test system: CAKI-1 renal
[6] = test system: CCRF-CEM leukemia
[7] = test system: COLO 205 colon
[8] = test system: DU-145 prostate
[9] = test system: EKVX NSCLC
[10] = test system: HCC-2998 colon
[11] = test system: HCT-116 colon
[12] = test system: HCT-15 colon
[13] = test system: HL-60(TB) leukemia
[14] = test system: HOP-62 NSCLC
[15] = test system: HOP-92 NSCLC
[16] = test system: HS 578T breast
[17] = test system: HT29 colon
[18] = test system: IGROV1 ovarian
[19] = test system: K-562 leukemia
[20] = test system: KM12 colon
[21] = test system: LOX IMVI melanoma
[22] = test system: M14 melanoma
[23] = test system: MALME-3M melanoma
[24] = test system: MCF7 breast
[25] = test system: MDA-MB-231 breast
[26] = test system: MDA-MB-435
[27] = test system: MDA-N
[28] = test system: MOLT-4 leukemia
[29] = test system: NCI-H226 lung
[30] = test system: NCI-H23 lung
[31] = test system: NCI-H460 lung
[32] = test system: NCI-H522 lung
[33] = test system: NCI/ADR-RES ovarian
[34] = test system: OVCAR-3 ovarian
[35] = test system: OVCAR-4 ovarian
[36] = test system: OVCAR-5 ovarian
[37] = test system: OVCAR-8 ovarian
[38] = test system: PC-3 prostate
[39] = test system: RPMI-8226 leukemia
[40] = test system: RXF 393 renal
[41] = test system: SF-268 CNS
[42] = test system: SF-295 CNS
[43] = test system: SF-539 CNS
[44] = test system: SK-MEL-28 melanoma
[45] = test system: SK-MEL-5 melanoma
[46] = test system: SK-OV-3 ovarian
[47] = test system: SN12C renal
[48] = test system: SNB-19 CNS
[49] = test system: SNB-75 CNS
[50] = test system: SR leukemia
[51] = test system: SW-620 colon
[52] = test system: T-47D breast
[53] = test system: TK-10 renal
[54] = test system: U251 CNS
[55] = test system: UACC-257 melanoma
[56] = test system: UACC-62 melanoma
[57] = test system: UO-31 renal

With CCCCCCCc1c(Cl)nc(Cl)nc1Cl the TGI [1] was 10.2 µM, the TGI [2] was 34.6 µM and the TGI [3] was 32.8 µM. The TGI [4] was 20.8 µM, the TGI [5] was 5.36 µM and the TGI [6] was 2.66 µM. The TGI [7] was 17.9 µM, the TGI [8] was 27.4 µM and the TGI [9] was 22.2 µM. It also gave a TGI [10] of 17 µM, a TGI [11] of 9.2 µM and a TGI [12] of 10.1 µM. For the same compound, the TGI [13] was 5.34 µM, the TGI [14] was 33.2 µM and the TGI [15] was 11.4 µM. The TGI [16] was 33.2 µM, the TGI [17] was 13.6 µM and the TGI [18] was 4.83 µM. For the same compound, the TGI [19] was 4.16 µM, the TGI [20] was 25 µM and the TGI [21] was 4.49 µM. For the same compound, the TGI [22] was 4.71 µM, the TGI [23] was 8.83 µM and the TGI [24] was 26.9 µM. It also gave a TGI [25] of 9.54 µM, a TGI [26] of 5.94 µM and a TGI [27] of 13.1 µM. The TGI [28] was 3.51 µM, the TGI [29] was 4.68 µM and the TGI [30] was 10.2 µM. The TGI [31] was 27.8 µM, the TGI [32] was 3.85 µM and the TGI [33] was 13.3 µM. The TGI [34] was 17.1 µM, the TGI [35] was 9.87 µM and the TGI [36] was 21 µM. For the same compound, the TGI [37] was 5.18 µM, the TGI [38] was 23.7 µM and the TGI [39] was 8.85 µM. The TGI [40] was 6.26 µM, the TGI [41] was 16.3 µM and the TGI [42] was 31.6 µM. It also gave a TGI [43] of 23.5 µM, a TGI [44] of 18.6 µM and a TGI [45] of 14.8 µM. The TGI [46] was 18.5 µM, the TGI [47] was 4.65 µM and the TGI [48] was 24.4 µM. For the same compound, the TGI [49] was 28.9 µM, the TGI [50] was 3.14 µM and the TGI [51] was 6.21 µM. The TGI [52] was 30.4 µM, the TGI [53] was 26.7 µM and the TGI [54] was 9.89 µM. It also gave a TGI [55] of 23.3 µM, a TGI [56] of 20.5 µM and a TGI [57] of 17.3 µM.
CCOC(=O)C(NC(=O)CC)(Nc1ccc(S(=O)(=O)Nc2ncccn2)cc1)C(F)(F)F (configuration not stated) was tested, and the TGI [1] was > 100 µM, the TGI [3] was > 100 µM and the TGI [4] was > 100 µM. For the same compound, the TGI [5] was > 100 µM, the TGI [6] was > 100 µM and the TGI [7] was > 100 µM. For the same compound, the TGI [8] was > 100 µM, the TGI [9] was > 100 µM and the TGI [10] was > 100 µM. The TGI [11] was > 100 µM, the TGI [12] was > 100 µM and the TGI [13] was > 100 µM. The TGI [14] was > 100 µM, the TGI [15] was > 100 µM and the TGI [16] was > 100 µM. For the same compound, the TGI [17] was > 100 µM, the TGI [18] was > 100 µM and the TGI [19] was > 100 µM. For the same compound, the TGI [20] was > 100 µM, the TGI [21] was > 100 µM and the TGI [22] was > 100 µM. For the same compound, the TGI [23] was > 100 µM, the TGI [24] was > 100 µM and the TGI [25] was > 100 µM. The TGI [26] was > 100 µM, the TGI [27] was > 100 µM and the TGI [28] was > 100 µM. The TGI [29] was > 100 µM, the TGI [30] was > 100 µM and the TGI [31] was > 100 µM. The TGI [32] was > 100 µM, the TGI [33] was > 100 µM and the TGI [34] was > 100 µM. For the same compound, the TGI [35] was > 100 µM, the TGI [36] was > 100 µM and the TGI [37] was > 100 µM. For the same compound, the TGI [38] was > 100 µM, the TGI [39] was > 100 µM and the TGI [40] was > 100 µM. The TGI [41] was > 100 µM, the TGI [42] was > 100 µM and the TGI [43] was > 100 µM. For the same compound, the TGI [44] was > 100 µM, the TGI [45] was > 100 µM and the TGI [46] was > 100 µM. For the same compound, the TGI [47] was > 100 µM, the TGI [48] was > 100 µM and the TGI [49] was > 100 µM. The TGI [50] was > 100 µM, the TGI [51] was > 100 µM and the TGI [52] was > 100 µM. The TGI [54] was > 100 µM, the TGI [55] was > 100 µM and the TGI [56] was > 100 µM. The TGI [57] was > 100 µM.
